Laboratory results reported in patent publication US11834453B2, “Substituted pyrimido[5,4-d]pyrimidines as HER2 inhibitors” (Array BioPharma Inc., priority 2020, dated 2023).
pIC50: −log10 of the molar value.

Legend:
EGFR wild type (EGFR WT) = EGFR wild type (EGFR WT) (Homo sapiens (Human), UniProt P00533); experiment: Cellular phosphorylation assay, EGF-stimulated EGFR phosphorylation in engineered NIH 3T3 cells, Phospho-EGFR DuoSet IC ELISA, Assay 5; format: cell-based
Method in brief: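 Phospho-EGFR ELISA on lysates of engineered NIH 3T3 EGFR WT cells, IC50 derived from concentration curves. Cells plated at 20,000/well overnight, given compound dilutions 1 h at 37 °C, then rEGF 100 ng/ml for a further 10 min before lysis.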

ErbB2 WT = ErbB2 WT (Homo sapiens (Human), UniProt P04626); experiment: ErbB enzyme assay (CisBio HTRF KinEASE-TK), Assay 2; format: biochemical
ErbB2 WT, sequence (P04626 23-1255): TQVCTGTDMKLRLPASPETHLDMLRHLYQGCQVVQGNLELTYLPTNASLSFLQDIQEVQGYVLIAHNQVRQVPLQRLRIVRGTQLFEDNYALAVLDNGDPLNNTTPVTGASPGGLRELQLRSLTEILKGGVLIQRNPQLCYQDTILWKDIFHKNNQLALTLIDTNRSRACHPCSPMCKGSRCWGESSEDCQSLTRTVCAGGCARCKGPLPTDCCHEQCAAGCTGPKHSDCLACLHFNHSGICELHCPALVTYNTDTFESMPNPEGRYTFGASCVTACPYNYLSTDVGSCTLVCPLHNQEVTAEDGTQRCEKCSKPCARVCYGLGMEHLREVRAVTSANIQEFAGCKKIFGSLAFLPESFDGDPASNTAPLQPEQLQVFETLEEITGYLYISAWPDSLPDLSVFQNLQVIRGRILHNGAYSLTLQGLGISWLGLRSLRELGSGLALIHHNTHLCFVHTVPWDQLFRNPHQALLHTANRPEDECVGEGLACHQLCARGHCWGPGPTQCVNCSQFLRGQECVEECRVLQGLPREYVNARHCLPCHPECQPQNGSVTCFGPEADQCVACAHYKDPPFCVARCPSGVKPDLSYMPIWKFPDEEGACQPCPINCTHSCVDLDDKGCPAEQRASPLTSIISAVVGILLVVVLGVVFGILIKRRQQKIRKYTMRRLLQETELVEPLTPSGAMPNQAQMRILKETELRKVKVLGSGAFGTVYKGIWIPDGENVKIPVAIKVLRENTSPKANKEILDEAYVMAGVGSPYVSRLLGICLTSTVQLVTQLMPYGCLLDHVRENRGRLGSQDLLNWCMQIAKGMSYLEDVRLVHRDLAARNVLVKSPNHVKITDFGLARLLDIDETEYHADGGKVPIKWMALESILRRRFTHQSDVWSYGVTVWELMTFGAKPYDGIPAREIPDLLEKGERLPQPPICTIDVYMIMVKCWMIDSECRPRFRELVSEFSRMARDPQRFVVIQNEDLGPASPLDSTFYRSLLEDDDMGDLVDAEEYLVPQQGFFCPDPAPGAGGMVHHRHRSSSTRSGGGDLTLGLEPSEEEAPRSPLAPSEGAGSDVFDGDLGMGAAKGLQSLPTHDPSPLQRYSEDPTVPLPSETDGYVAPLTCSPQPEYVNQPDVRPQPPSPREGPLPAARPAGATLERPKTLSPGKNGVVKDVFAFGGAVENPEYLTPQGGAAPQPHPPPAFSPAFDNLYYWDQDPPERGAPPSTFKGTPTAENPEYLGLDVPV
Method in brief: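 Readout is HTRF KinEASE-TK, using Sa-XL665 and cryptate antibody for 1 h at 22 °C, as percent of control between DMSO-only (100) and pre-quenched (0) reactions. The kinase reaction runs 30 min at 22 °C with 1 mM ATP and 250 nM biotinylated TK substrate, in HEPES pH 7.4 with MgCl2 and 2% DMSO.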

[1] = target: ErbB2 with Exon 20 YVMA insertion (HER2-YVMA) (Homo sapiens (Human), UniProt P04626, INS775YVMA); experiment: Cellular phosphorylation assay, constitutive ErbB2 phosphorylation (Y1196) in engineered NIH 3T3 cells, Assay 4; format: cell-based
ErbB2 with Exon 20 YVMA insertion (HER2-YVMA), sequence (P04626 other isoform, or with tags, fused parts or gaps ins YVMA behind 775): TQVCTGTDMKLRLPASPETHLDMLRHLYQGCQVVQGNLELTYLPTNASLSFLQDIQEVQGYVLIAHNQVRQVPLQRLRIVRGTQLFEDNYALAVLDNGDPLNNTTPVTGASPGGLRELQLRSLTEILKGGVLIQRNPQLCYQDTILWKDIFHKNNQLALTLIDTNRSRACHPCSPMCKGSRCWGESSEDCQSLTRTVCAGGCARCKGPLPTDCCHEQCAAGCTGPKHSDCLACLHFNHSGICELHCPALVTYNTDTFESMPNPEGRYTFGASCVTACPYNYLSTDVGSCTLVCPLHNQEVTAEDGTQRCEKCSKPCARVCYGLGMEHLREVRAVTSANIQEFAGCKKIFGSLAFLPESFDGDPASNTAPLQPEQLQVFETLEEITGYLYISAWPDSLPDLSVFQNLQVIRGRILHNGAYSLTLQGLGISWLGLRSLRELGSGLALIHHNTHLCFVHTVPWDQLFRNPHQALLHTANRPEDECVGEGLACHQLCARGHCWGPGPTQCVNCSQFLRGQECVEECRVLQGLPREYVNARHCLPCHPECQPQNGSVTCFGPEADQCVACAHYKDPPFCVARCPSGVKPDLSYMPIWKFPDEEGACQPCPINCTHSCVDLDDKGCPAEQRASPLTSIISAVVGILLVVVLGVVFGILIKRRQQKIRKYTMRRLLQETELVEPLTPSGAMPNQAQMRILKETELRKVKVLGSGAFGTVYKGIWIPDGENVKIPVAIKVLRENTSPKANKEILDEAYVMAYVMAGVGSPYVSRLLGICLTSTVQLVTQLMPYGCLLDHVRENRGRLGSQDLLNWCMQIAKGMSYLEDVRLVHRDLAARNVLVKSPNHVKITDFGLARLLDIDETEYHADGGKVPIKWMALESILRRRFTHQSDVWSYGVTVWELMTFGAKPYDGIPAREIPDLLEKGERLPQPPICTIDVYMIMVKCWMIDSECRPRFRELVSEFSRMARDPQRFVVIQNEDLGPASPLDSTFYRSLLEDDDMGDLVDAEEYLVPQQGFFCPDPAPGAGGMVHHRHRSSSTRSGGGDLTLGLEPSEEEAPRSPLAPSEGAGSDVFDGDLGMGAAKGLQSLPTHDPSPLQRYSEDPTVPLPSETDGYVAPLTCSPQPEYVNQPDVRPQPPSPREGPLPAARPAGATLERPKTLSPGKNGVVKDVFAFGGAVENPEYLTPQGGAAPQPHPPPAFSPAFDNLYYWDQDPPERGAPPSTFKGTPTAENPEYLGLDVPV
Method in brief: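 In-cell Western in NIH 3T3 cells carrying ErbB2 exon 20 YVMA insertion, with no ligand stimulation. One hour compound exposure at 37 °C before fixation and anti-pY1196 plus GAPDH staining with dual-wavelength fluorescence. IC50 derived after GAPDH normalization.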

MDR1 (P-gp) = MDR1 (P-gp) (Homo sapiens (Human), UniProt P08183); experiment: MDR1 transfected LLC-PK1 permeability/efflux, Assay 6; conditions: pig, LLC-PK1, Assay 6 Pe Ratio, efflux ratio Papp(B-A)/Papp(A-B), MDR1 transfected LLC-PK1
MDR1 (P-gp), sequence (P08183 whole entry): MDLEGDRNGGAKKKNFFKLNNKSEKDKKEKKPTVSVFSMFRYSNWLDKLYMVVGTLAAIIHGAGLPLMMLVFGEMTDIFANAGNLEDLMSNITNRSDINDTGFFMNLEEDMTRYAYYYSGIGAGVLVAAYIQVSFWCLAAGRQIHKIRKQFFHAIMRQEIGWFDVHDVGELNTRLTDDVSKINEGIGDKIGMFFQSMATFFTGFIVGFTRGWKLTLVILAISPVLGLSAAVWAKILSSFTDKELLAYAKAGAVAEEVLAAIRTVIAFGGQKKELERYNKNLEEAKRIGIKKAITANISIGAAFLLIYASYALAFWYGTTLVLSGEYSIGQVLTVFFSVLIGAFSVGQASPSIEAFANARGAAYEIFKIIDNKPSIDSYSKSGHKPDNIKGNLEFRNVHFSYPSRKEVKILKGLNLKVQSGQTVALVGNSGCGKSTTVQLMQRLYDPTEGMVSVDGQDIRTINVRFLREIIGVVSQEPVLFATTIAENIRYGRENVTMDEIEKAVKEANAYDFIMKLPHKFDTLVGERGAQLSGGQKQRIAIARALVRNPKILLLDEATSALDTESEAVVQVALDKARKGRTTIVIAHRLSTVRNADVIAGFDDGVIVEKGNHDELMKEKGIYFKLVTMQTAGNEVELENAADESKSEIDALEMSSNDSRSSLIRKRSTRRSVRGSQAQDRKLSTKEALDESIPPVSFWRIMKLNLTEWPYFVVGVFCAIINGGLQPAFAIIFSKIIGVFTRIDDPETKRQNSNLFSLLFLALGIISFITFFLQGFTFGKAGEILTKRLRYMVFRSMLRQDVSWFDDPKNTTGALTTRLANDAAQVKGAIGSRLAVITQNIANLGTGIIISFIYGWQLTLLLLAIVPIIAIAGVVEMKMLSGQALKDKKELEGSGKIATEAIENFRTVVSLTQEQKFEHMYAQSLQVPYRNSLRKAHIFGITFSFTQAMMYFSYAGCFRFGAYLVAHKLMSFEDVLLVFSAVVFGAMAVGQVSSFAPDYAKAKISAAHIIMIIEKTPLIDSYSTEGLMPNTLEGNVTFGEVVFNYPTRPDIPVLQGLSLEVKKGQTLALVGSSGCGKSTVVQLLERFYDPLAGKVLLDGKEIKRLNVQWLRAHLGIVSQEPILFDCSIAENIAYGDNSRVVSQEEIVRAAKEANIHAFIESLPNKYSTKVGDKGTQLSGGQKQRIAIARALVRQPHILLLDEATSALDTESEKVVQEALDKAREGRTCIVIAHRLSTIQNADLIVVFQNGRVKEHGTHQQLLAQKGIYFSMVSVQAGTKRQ

[2] = target: ErbB2 insYVMA (HER2-YVMA, SEQ ID NO: 2) (Homo sapiens, UniProt P04626, INS775YVMA/P1170A); experiment: biochemical; conditions: ErbB2 insYVMA enzyme assay; read-out: Assay 1 IC50
ErbB2 insYVMA (HER2-YVMA, SEQ ID NO: 2), sequence (P04626 with tags, fused parts or gaps INS775YVMA/P1170A limits assumed): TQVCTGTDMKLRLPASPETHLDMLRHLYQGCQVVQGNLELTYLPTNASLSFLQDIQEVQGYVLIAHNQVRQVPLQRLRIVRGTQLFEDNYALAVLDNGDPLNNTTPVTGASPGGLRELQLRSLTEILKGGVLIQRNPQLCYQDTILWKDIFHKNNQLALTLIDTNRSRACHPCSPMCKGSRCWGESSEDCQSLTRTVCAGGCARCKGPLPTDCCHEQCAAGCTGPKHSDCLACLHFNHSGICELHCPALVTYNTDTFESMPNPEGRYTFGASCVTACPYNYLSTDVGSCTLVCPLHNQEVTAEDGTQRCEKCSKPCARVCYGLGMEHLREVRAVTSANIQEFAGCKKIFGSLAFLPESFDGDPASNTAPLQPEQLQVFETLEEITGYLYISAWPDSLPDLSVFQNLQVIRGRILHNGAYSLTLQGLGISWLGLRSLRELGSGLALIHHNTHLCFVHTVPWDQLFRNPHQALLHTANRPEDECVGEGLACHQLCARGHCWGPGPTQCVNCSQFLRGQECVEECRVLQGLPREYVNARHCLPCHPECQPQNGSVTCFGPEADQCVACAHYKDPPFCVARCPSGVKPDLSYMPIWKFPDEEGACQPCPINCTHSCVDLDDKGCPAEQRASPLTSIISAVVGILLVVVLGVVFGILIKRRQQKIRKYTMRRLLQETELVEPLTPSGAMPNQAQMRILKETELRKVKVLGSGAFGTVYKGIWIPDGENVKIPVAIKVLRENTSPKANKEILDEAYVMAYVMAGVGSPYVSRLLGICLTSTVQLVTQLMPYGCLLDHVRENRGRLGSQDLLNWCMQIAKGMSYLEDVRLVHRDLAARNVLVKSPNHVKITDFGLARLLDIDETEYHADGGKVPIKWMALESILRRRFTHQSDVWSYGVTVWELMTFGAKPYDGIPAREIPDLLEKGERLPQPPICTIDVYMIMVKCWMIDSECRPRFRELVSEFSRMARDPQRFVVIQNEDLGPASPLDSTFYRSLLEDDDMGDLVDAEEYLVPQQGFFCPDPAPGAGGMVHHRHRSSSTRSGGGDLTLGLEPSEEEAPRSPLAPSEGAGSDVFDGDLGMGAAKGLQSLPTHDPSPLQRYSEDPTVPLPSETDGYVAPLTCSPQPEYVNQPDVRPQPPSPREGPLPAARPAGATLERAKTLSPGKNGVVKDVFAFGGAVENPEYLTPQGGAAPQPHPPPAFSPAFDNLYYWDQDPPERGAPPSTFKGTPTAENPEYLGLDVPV

EGFR = EGFR (Homo sapiens (Human), UniProt P00533); experiment: ErbB enzyme assay (CisBio HTRF KinEASE-TK), Assay 3; format: biochemical
Method in brief: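 Using a time-resolved FRET read-out, tyrosine phosphorylation of 250 nM biotin substrate at 1 mM ATP (pH 7.4, 10 mM MgCl2, 2% DMSO, 22 °C, 30 min) was quantified against DMSO and pre-quenched controls; IC50 taken at 50% of control.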

| SMILES | pIC50 (EGFR wild type (EGFR WT)) | pIC50 (ErbB2 WT) | pIC50 [1] | efflux ratio at 2 h, 1 μM (MDR1 (P-gp)) | pIC50 [2] | pIC50 (EGFR) |
| --- | --- | --- | --- | --- | --- | --- |
| Cc1cc(Nc2ncnc3cnc(N4CCN(C)[C@@H](C)C4)nc23)ccc1Oc1ccc2c(c1)ncn2C [Example 280] | ≤ 5.30 | 7.11 | 7.83 | 4 | 7.42 | ≤ 5.00 |
| Cc1cc(Nc2ncnc3cnc(N[C@H]4CN(C)C[C@H]4F)nc23)ccc1Oc1ccc2c(c1)ncn2C [Example 279] | ≤ 5.30 | 7.30 | 8.92 | 16.6 | 7.60 | 5.39 |
| Cc1cc(Nc2ncnc3cnc(N4CCC(C)S4(=O)=O)nc23)ccc1Oc1ccc2c(c1)ncn2C (stereo not drawn) [Example 267] | ≤ 5.30 | 7.48 | 8.39 | 6 | 7.46 | 5.40 |
| Cc1cc(Nc2ncnc3cnc(-c4cscn4)nc23)ccc1Oc1ccc2c(c1)ncn2C [Example 235] | ≤ 5.30 | 7.27 | 8.25 | 2.9 | 7.13 | ≤ 5.00 |
| Cc1cc(Nc2ncnc3cnc(N4CC[C@@H](S(C)(=O)=O)C4)nc23)ccc1Oc1ccc2c(c1)ncn2C [Example 125, (R)—N-(3-methyl-4-((1-methyl-1H-benzo[d]imidazol-5-yl)oxy)phenyl)-6-(3-(methylsulfonyl)pyrrolidin-1-yl)pyrimido[5,4-d]pyrimidin-4-amine] | ≤ 5.30 | 7.25 | 7.49 | 36.1 | 7.61 | ≤ 5.00 |
| Cc1cc(Nc2ncnc3cnc(N[C@H]4CCOC4)nc23)ccc1Oc1ccc2c(c1)ncn2C [Example 17, (S)—N8-(3-methyl-4-((1-methyl-1H-benzo[d]imidazol-5-yl)oxy)phenyl)-N2-(tetrahydrofuran-3-yl)pyrimido[5,4-d]pyrimidine-2,8-diamine] | ≤ 5.30 | 8.22 | 8.04 | 6.6 | 8.15 | 5.63 |
| Cc1cc(Nc2ncnc3cnc(N)nc23)ccc1Oc1ccc2c(c1)ncn2C [Example 206, N8-(3-methyl-4-((1-methyl-1H-benzo[d]imidazol-5-yl)oxy)phenyl)pyrimido[5,4-d]pyrimidine-2,8-diamine bis(2,2,2-trifluoroacetate)] | ≤ 5.30 | 7.39 | 7.61 | 3.3 | 7.90 | ≤ 5.00 |
| Cc1cc(Nc2ncnc3cnc(N4CC(C(C)(C)O)C4)nc23)ccc1Oc1ccc2c(c1)ncn2C [Example 118, 2-(1-(8-((3-methyl-4-((1-methyl-1H-benzo[d]imidazol-5-yl)oxy)phenyl)amino)pyrimido[5,4-d]pyrimidin-2-yl)azetidin-3-yl)propan-2-ol] | ≤ 5.30 | 7.05 | 7.40 | 7.4 | 7.27 | ≤ 5.00 |
| Cc1cc(Nc2ncnc3cnc(N[C@@H]4CCN(C)C[C@@H]4F)nc23)ccc1Oc1ccc2c(c1)ncn2C [Example 84, N2-((3S,4R)-3-fluoro-1-methylpiperidin-4-yl)-N8-(3-methyl-4-((1-methyl-1H-benzo[d]imidazol-5-yl)oxy)phenyl)pyrimido[5,4-d]pyrimidine-2,8-diamine] | ≤ 5.30 | 7.33 | 7.59 | 10.2 | 7.85 | 5.27 |
| Cc1cc(Nc2ncnc3cnc(N4CC[C@H](S(C)(=O)=O)C4)nc23)ccc1Oc1ccc2c(c1)ncn2C [Example 119, (S)—N-(3-methyl-4-((1-methyl-1H-benzo[d]imidazol-5-yl)oxy)phenyl)-6-(3-(methylsulfonyl)pyrrolidin-1-yl)pyrimido[5,4-d]pyrimidin-4-amine] | ≤ 5.30 | 7.51 | 7.61 | 29.6 | 7.57 | 5.03 |
| Cc1cc(Nc2ncnc3cnc(N4CCC(C)(O)CC4)nc23)ccc1Oc1ccc2c(c1)ncn2C [Example 209, 4-methyl-1-(8-((3-methyl-4-((1-methyl-1H-benzo[d]imidazol-5-yl)oxy)phenyl)amino)pyrimido[5,4-d]pyrimidin-2-yl)piperidin-4-ol] | ≤ 5.30 | 7.24 | 7.93 | 3.3 | 7.53 | 5.02 |
| Cc1cc(Nc2ncnc3cnc(NCC(F)F)nc23)ccc1Oc1ccc2c(c1)ncn2C [Example 251] | ≤ 5.30 | 7.67 | 8.18 | 2.3 | 7.93 | 5.74 |
| Cc1cc(Nc2ncnc3cnc(N[C@@H]4CCOC4)nc23)ccc1Oc1ccc2c(c1)ncn2C [Example 275] | ≤ 5.30 | 7.78 | 7.74 | 6 | 7.88 | 5.78 |
| Cc1cc(Nc2ncnc3cnc(N4CC[C@H](C(C)(C)O)C4)nc23)ccc1Oc1ccc2c(c1)ncn2C [Example 126, (S)-2-(1-(8-((3-methyl-4-((1-methyl-1H-benzo[d]imidazol-5-yl)oxy)phenyl)amino)pyrimido[5,4-d]pyrimidin-2-yl)pyrrolidin-3-yl)propan-2-ol] | ≤ 5.30 | 7.74 | 7.84 | 3.8 | 7.81 | ≤ 5.00 |
| Cc1cc(Nc2ncnc3cnc(N(C)CC4(O)CC4)nc23)ccc1Oc1ccc2c(c1)ncn2C [Example 166, 1-((methyl(8-((3-methyl-4-((1-methyl-1H-benzo[d]imidazol-5-yl)oxy)phenyl)amino)pyrimido[5,4-d]pyrimidin-2-yl)amino)methyl)cyclopropan-1-ol] | ≤ 5.30 | 7.40 | 8.52 | 4.6 | 7.79 | ≤ 5.00 |
| Cc1cc(Nc2ncnc3cnc(O[C@H]4CCNC[C@@H]4F)nc23)ccc1Oc1ccc2c(c1)ncn2C [Example 285] | ≤ 5.30 | 6.10 | 7.27 | 72.1 | 7.08 | ≤ 5.00 |
| Cc1cc(Nc2ncnc3cnc(N4CCN(C)C4=O)nc23)ccc1Oc1ccc2c(c1)ncn2C [Example 28, 1-methyl-3-(8-((3-methyl-4-((1-methyl-1H-benzo[d]imidazol-5-yl)oxy)phenyl)amino)pyrimido[5,4-d]pyrimidin-2-yl)imidazolidin-2-one] | ≤ 5.30 | 6.79 | 7.61 | 13.3 | 7.16 | ≤ 5.00 |
| Cc1cc(Nc2ncnc3cnc(N4CCOC(C(F)F)C4)nc23)ccc1Oc1ccc2c(c1)ncn2C (stereo not drawn) [Example 181, 6-(2-(difluoromethyl)morpholino)-N-(3-methyl-4-((1-methyl-1H-benzo[d]imidazol-5-yl)oxy)phenyl)pyrimido[5,4-d]pyrimidin-4-amine] | ≤ 5.30 | 6.77 | 7.27 | 0.3 | 7.09 | ≤ 5.00 |
